Measurements taken from patent US12097241B2, “Methods of treating kidney failure, and/or improving or stablizing renal function using modified relaxin polypeptides” (BRISTOL-MYERS SQUIBB COMPANY, priority 2017, dated 2024).

Target: T1, human RXFP1 receptor (Homo sapiens, UniProt Q9HBX9)
T1 construct: expressed in transfected cells
T1 sequence (Q9HBX9 1-757): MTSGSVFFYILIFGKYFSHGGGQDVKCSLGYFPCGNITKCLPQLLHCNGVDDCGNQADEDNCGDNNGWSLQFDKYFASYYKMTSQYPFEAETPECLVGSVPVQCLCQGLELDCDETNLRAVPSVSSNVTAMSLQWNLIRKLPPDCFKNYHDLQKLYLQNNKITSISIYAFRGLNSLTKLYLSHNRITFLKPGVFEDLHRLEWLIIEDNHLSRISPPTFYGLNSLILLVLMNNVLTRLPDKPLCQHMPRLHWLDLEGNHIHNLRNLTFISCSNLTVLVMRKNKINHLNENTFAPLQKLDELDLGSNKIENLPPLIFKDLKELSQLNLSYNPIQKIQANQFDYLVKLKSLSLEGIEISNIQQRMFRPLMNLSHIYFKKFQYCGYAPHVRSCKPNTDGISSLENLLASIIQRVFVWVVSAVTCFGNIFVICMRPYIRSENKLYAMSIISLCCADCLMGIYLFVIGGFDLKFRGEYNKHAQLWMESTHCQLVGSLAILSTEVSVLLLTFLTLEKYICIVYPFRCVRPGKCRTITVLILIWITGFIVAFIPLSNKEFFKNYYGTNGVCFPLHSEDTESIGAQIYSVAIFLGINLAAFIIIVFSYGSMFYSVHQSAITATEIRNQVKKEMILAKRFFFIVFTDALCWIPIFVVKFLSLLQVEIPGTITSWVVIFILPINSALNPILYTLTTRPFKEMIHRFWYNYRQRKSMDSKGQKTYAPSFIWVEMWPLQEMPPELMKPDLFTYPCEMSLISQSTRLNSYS
Assay: Intracellular cAMP accumulation assay
Assay type: cell-based
Description: The intracellular cAMP accumulation assay described herein was used to assess relaxin bioactivity and potency.
CHO-K1 cells (ATCC; Cat. #CRL-9618) stably expressing the human RXFP1 receptor (locus number LOC59350) (10,000/well) were plated into 96-well plates and cultured overnight at 37° C. and 5% CO2. On the following day, the medium was removed from the wells and the cells were stimulated with the addition of ligand (relaxin polypeptide) in 50 uL buffer (1×HBSS, 5 mM HEPES (7.2), 0.5 mM IBMX, 0.1% BSA); incubation was for 10 min at 37° C. Unstimulated cells were utilized as reference controls. Reactions were terminated and cellular cAMP levels were measured using the Homogeneous Time Resolved Fluorescence (HTRF) Dynamic 2 cAMP kit (CisBio, #62AM4PEC) according to the manufacturer's protocol. Plates were analyzed using an EnVision 2104 Multilablel Reader (PerkinElmer). Signal was expressed in terms of the ratio of fluorescence intensity @ 665 nm/fluorescence intensity @620 nm×10,000. The concentration of cAMP in the sample was determined by comparison with standard curves generated from known concentrations of cAMP. The potency of each relaxin was determined using a ten-point concentration response curves which was performed in duplicate. The data were analyzed using Microsoft Excel, Version 2013 Xlfit software. Effective concentration 50 (EC50) values, the point at which the response was one-half maximal, were calculated using a four-parameter logistic equation that allowed for a variable-slope (Table 3).

Row | SMILES | EC50 [pM]
1 | CC[C@H](C)[C@@H]1NC(=O)[C@H](C)NC(=O)[C@H]([C@@H](C)CC)NC(=O)[C@H](CCC(N)=O)NC(=O)[C@H](C)NC(=O)[C@H](CCCNC(=N)N)NC(=O)[C@H](C(C)C)NC(=O)[C@H](CC(C)C)NC(=O)[C@H](CCC(=O)O)NC(=O)[C@H](CCCNC(=N)N)NC(=O)CNC(=O)[C@@H](NC(=O)[C@H](CC(C)C)NC(=O)[C@H](CCCCN)NC(=O)[C@@H](NC(=O)[C@@H](NC(=O)[C@H](CCC(=O)O)NC(=O)[C@H](CCC(=O)O)NC(=O)[C@H](CCSC)NC(=O)[C@H](Cc2c[nH]c3ccccc23)NC(=O)[C@H](CO)NC(=O)[C@H](C)N)C(C)C)[C@@H](C)CC)CSSC[C@@H]2NC(=O)[C@@H](NC(=O)[C@H](CCCCN)NC(=O)[C@H](CC(N)=O)NC(=O)[C@H](C)NC(=O)[C@H](CC(C)C)NC(=O)[C@H](C)NC(=O)[C@H](CO)NC(=O)[C@H](Cc3ccc(O)cc3)NC(=O)[C@H](CC(C)C)NC(=O)[C@@H](N)Cc3ccc(/C(C)=N/OCCNC(=O)CCC(=O)NCCCNCCCCNCCCNC(=O)CC[C@H](NC(=O)CCCCCCCCCCCCCC(=O)O)C(=O)O)cc3)CSSC[C@H](NC(=O)CNC(=O)[C@H](C(C)C)NC(=O)[C@H](Cc3c[nH]cn3)NC2=O)C(=O)N[C@@H]([C@@H](C)O)C(=O)N[C@@H](CCCCN)C(=O)N[C@@H](CCCNC(=N)N)C(=O)N[C@@H](CO)C(=O)N[C@@H](CC(C)C)C(=O)N[C@@H](C)C(=O)N[C@@H](CCCNC(=N)N)C(=O)N[C@@H](Cc2ccccc2)C(=O)N[C@H](C(=O)O)CSSC[C@@H](C(=O)NCC(=O)N[C@@H](CCSC)C(=O)N[C@@H](CO)C(=O)N[C@H](C(=O)N[C@@H](Cc2c[nH]c3ccccc23)C(=O)N[C@@H](CO)C(=O)O)[C@@H](C)O)NC1=O [AQ1-Spermine-Glu^γ-C14-COOH] | 390
2 | CC[C@H](C)[C@@H]1NC(=O)[C@H](C)NC(=O)[C@H]([C@@H](C)CC)NC(=O)[C@H](CCC(N)=O)NC(=O)[C@H](C)NC(=O)[C@H](CCCNC(=N)N)NC(=O)[C@H](C(C)C)NC(=O)[C@H](CC(C)C)NC(=O)[C@H](CCC(=O)O)NC(=O)[C@H](CCCNC(=N)N)NC(=O)CNC(=O)[C@@H](NC(=O)[C@H](CC(C)C)NC(=O)[C@H](CCCCN)NC(=O)[C@@H](NC(=O)[C@@H](NC(=O)[C@H](CCC(=O)O)NC(=O)[C@H](CCC(=O)O)NC(=O)[C@H](CCSC)NC(=O)[C@H](Cc2c[nH]c3ccccc23)NC(=O)[C@H](CO)NC(=O)[C@H](C)N)C(C)C)[C@@H](C)CC)CSSC[C@@H]2NC(=O)[C@@H](NC(=O)[C@H](CCCCN)NC(=O)[C@H](CC(N)=O)NC(=O)[C@H](C)NC(=O)[C@H](CC(C)C)NC(=O)[C@H](C)NC(=O)[C@H](CO)NC(=O)[C@H](Cc3ccc(O)cc3)NC(=O)[C@H](CC(C)C)NC(=O)[C@@H](N)Cc3ccc(C(C)=NOCCNC(=O)[C@H](CCC(=O)O)NC(=O)CNC(=O)CNC(=O)CNC(=O)CNC(=O)[C@H](CO)NC(=O)[C@H](CCCCN)NC(=O)CC[C@H](NC(=O)CCCCCCCCCCCCC(=O)O)C(=O)O)cc3)CSSC[C@H](NC(=O)CNC(=O)[C@H](C(C)C)NC(=O)[C@H](Cc3c[nH]cn3)NC2=O)C(=O)N[C@@H]([C@@H](C)O)C(=O)N[C@@H](CCCCN)C(=O)N[C@@H](CCCNC(=N)N)C(=O)N[C@@H](CO)C(=O)N[C@@H](CC(C)C)C(=O)N[C@@H](C)C(=O)N[C@@H](CCCNC(=N)N)C(=O)N[C@@H](Cc2ccccc2)C(=O)N[C@H](C(=O)O)CSSC[C@@H](C(=O)NCC(=O)N[C@@H](CCSC)C(=O)N[C@@H](CO)C(=O)N[C@H](C(=O)N[C@@H](Cc2c[nH]c3ccccc23)C(=O)N[C@@H](CO)C(=O)O)[C@@H](C)O)NC1=O [AQ1-EGGGGSK-Glu^γ-C13-COOH] | 310
